Assay results: article PMC13303085, “Succinate dehydrogenase loss suppresses pyrimidine biosynthesis via succinate-mediated inhibition of aspartate transcarbamylase” (Nature metabolism, 2026)

Columns and labels:
[1] = target: T1, aspartate transcarbamylase (ATCase) domain of CAD (Homo sapiens, UniProt P27708); experiment: biochemical
T1 sequence (P27708 1915-2225): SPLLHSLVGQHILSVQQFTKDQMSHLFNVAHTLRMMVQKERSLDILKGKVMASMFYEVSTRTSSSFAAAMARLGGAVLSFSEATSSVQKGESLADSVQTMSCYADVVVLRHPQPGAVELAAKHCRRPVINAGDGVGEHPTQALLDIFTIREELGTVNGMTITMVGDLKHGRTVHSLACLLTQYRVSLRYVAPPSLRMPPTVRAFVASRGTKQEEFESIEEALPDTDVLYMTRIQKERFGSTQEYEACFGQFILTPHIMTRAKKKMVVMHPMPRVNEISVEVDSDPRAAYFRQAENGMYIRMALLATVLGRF

[2] = target: T1, aspartate transcarbamylase (ATCase) domain of CAD; experiment: initial-rate kinetics of purified MBP-ATCase, CP titration in excess aspartate (Michaelis-Menten); assay type: biochemical; parameters: residues 1,915–2,225 of human CAD, N-terminal 6×His-tagged MBP fusion (MBP-ATCase)
Source text: initial-rate kinetics of purified MBP-ATCase, CP titration in excess aspartate (Michaelis-Menten) on aspartate transcarbamylase (ATCase) domain of CAD | relative initial enzymatic rates of MBP-ATCase in excess aspartate and a titration of CP.

[3] = target: T1, aspartate transcarbamylase (ATCase) domain of CAD; experiment: colorimetric carbamoyl-aspartate formation assay with purified MBP-ATCase, CP titration at […] aspartate; assay type: biochemical; parameters: residues 1,915–2,225 of human CAD, N-terminal 6×His-tagged MBP fusion (MBP-ATCase)
[4] = target: T1, aspartate transcarbamylase (ATCase) domain of CAD; experiment: initial-rate kinetics of purified MBP-ATCase, aspartate titration in excess CP; assay type: biochemical; parameters: residues 1,915–2,225 of human CAD, N-terminal 6×His-tagged MBP fusion (MBP-ATCase)
[5] = target: the molecule itself; experiment: SEC; affinity-purified MBP-ATCase on Superdex 200 16/600 in 20 mM Tris-HCl pH 7.2, 100 mM NaCl, 2% glycerol, 0.2 mM TCEP; trimer

O=C(O)CCC(=O)O [succinate]
IC50 [1]: 1.35 mM

NC(=O)OP(=O)(O)O [carbamoyl phosphate]
initial-rate kinetics of purified MBP-ATCase, CP titration in excess aspartate [2]: relative initial enzymatic rates of MBP-ATCase in excess aspartate and a titration of CP. This showed saturation kinetics

O=C(O)C[C@H](NC(=O)CP(=O)(O)O)C(=O)O [PALA]
colorimetric carbamoyl-aspartate formation assay with purified MBP-ATCase, CP ti [3]: initial rates were dose-dependently decreased with nanomolar doses of the classical ATCase inhibitor, PALA (N-phosphonacetyl-L-aspartate)

N[C@@H](CC(=O)O)C(=O)O [aspartate]
initial-rate kinetics of purified MBP-ATCase, aspartate titration in excess CP [4]: we measured initial enzymatic rates of MBP-ATCase in excess CP, a titration of aspartate, and three concentrations of succinate

B1: ATCase domain of human CAD fused N-terminally to a 6×His-tagged maltose binding protein (MBP-ATCase) (domain or fragment, UniProt P27708 1915-2225, looked up)
chain: SPLLHSLVGQHILSVQQFTKDQMSHLFNVAHTLRMMVQKERSLDILKGKVMASMFYEVSTRTSSSFAAAMARLGGAVLSFSEATSSVQKGESLADSVQTMSCYADVVVLRHPQPGAVELAAKHCRRPVINAGDGVGEHPTQALLDIFTIREELGTVNGMTITMVGDLKHGRTVHSLACLLTQYRVSLRYVAPPSLRMPPTVRAFVASRGTKQEEFESIEEALPDTDVLYMTRIQKERFGSTQEYEACFGQFILTPHIMTRAKKKMVVMHPMPRVNEISVEVDSDPRAAYFRQAENGMYIRMALLATVLGRF
notes: Order of the construct: 6×His, SSG linker, MBP, two SSG linkers, TEV protease site, GS linker, CAD 1915-2225; in pET-28a(+); also called 6×His-tagged MBP-ATCase; human ATCase; source: E. coli BL21, autoinduction medium, purified (HisPur cobalt resin, SEC on Superdex 200); not shown: His6, N-terminal, kept; MBP, N-terminal, kept
stoichiometry N [5]: 3
